Reference: patent US8524861B2, “Treatment of bacterial infections” (priority 2004, dated 2013)
Entries after “also recorded” stand apart in the source; their conditions may differ. Where no end group is shown, it is not given here.

Columns and labels:
[1] = test system: Staphylococcus aureus, Pseudomonas aeruginosa, and Streptococcus pneumoniae; experiment: Antibacterial activity, overall statements over the test bacteria; assay type: cell-based
From the text: The inventors conducted exhaustive experiments to assess the antibacterial activity of peptides from apolipoproteins and derivatives thereof. Peptides and derivatives from ApoE and ApoB were a particular focus. […] Example 1 illustrates the efficacy of the polypeptides according to the invention compared to apoE141-149 and apoB3359-3367 (i.e. non-tandem repeats) and other peptides derived from apolipoproteins.
The activity of polypeptides in accordance with the invention can be seen in Tables 5, 6, 7 and 8.
(§1) The peptides were examined for antibacterial efficacy against Staphylococcus aureus. To test the efficacy of peptides, dilutions of test peptides or PBS (for use as a control) were prepared in LB broth, and 100 μl aliquots of these placed in 96-well plates. A vial of planktonic bacterial stock was thawed in a 37° C. incubator and diluted to the level previously determined which would produce log phase growth after overnight incubation (see above). 25 μl of this bacterial dilution was then added to the test wells (some wells containing LB broth without peptide were left without any bacterial inoculation, these being used as a blank). After overnight growth, the concentration of bacteria in individual wells was assessed by measuring absorbance at 620 nm, in a microplate spectrophotometer. The average absorbance of wells for specific concentrations of peptides was calculated, and from this the percentage inhibition (relative to untreated wells) was also calculated and plotted against concentration (along with an estimate of error on that % inhibition).
(§2) The inventor constructed an expanded library of peptides derived from either apolipoprotein B or apolipoprotein E in order to further evaluate polypeptides in accordance with the invention. Further experiments were then conducted to investigate the antibacterial activity of this peptide library against the bacteria P. aeroginosa, S. aureus and S. pneumoniae. The methods used to determine the IC50 values for each peptide were as described in the Example 1.

[2] = test system: Pseudomonas aeruginosa (ATCC strain 9027); assay type: cell-based; details: for IC50: ATCC strain 9027
Experimental: (§3) Bacterial Stocks—ATCC derived stock bacteria were obtained from Oxoid Limited. Pseudomonas aeruginosa (ATCC strain 9027) or Staphylococcus aureus (ATCC strain 6538P) were obtained in ‘Cultiloop’ format. Stocks were prepared by inoculating 20 ml of LB broth with a single Cultiloop, and incubating overnight at 37° C. Cells present after overnight incubation were harvested by removing larger aggregates by centrifugation (3000 g, 10 minutes), and withdrawing 16 ml of the supernatant, which was likely to contain mainly planktonic bacteria. To this, 4 ml of sterile glycerol was added (the latter having been sterilised by autoclaving). The resultant suspension was divided between 15× 1 ml cryovials before freezing at −85° C.
(§4) Preliminary experiments were carried out to estimate the amount to dilute bacterial stocks which when on addition of 25 μl of diluted stock to 100 μl of fresh LB broth would result in bacteria in log phase growth after overnight incubation at 37° C.
as §1
Peptides in accordance with the invention were also examined for antibacterial efficacy against Pseudomonas aeruginosa using the same technique as described above to calculate the IC50 values.
Points were obtained by dividing the average for six treated wells by the average for six untreated wells, and bars show an estimate of the error for these calculated values.
as §2

[3] = test system: Staphylococcus aureus (ATCC strain 6538P); assay type: cell-based; details: ATCC strain 6538P
Experimental: as §3, §4, §1, §2

[4] = test system: Saccharomyces cerevisiae yeast cells (strain GenT01); experiment: Gentronix GreenScreen GC yeast genotoxicity assay; assay type: cell-based; details: concentrations up to and including 100 μM, FIGS. 6A-6C
Experimental: A liquid handling robot is used to produce a serial dilution series of each test compound in a 96-well, black microplate with an optically clear base. […] In addition, a series of genotoxic and cytotoxic standards and non-toxic controls are run to provide internal quality control. The plates are covered with a breathable membrane and incubated overnight, without shaking, at 25° C.
After incubation, the microplates are uncovered and data collected using a Tecan Ultra 384 microplate reader. This instrument provides measurements of light absorbance and fluorescence in microplates; a standard fluorescein filter set (excitation 485/25 and emission 535/25) is used. Absorbance is read at 620 nm and is proportional to cell proliferation (which is lowered by toxic analytes). Fluorescence is proportional to the activity of the DNA repair system (increased by genotoxic analytes). The yeast cultures used are a genetically modified strain that express a green fluorescent protein whenever the cells carry out DNA damage repair. Fluorescence is normalised to the absorbance signal to correct for variation in cell yield caused by any cytolytic activity of the test compounds against the yeast cells. This produces a “fluorescence per cell” measurement termed “brightness”. In addition to the Gentronix Assay yeast strain (GenT01), a control Saccharomyces cerevisiae strain (GenC01) is also used, which is identical except for its ability to produce green fluorescent protein is disabled. This strain is used to provide a control to allow correction for substances which may be either autofluorescent themselves or which induce an autofluorescence in the yeast cells. The data collected is simply transferred into a Excel template where result evaluation sheets are automatically produced. The sheets contain the processed results in both a graphical and tabulated format, with automatic assessment of the result, i.e. positive or negative, and calculation of the lowest effective concentration (LEC), for both genotoxicity and cytotoxicity. […]

Streptococcus pneumoniae = assay type: cell-based
Experimental: as §1, with “inhibition). […] The inventor constructed an expanded library of peptides derived from either apolipoprotein B or apolipoprotein E in order to further evaluate polypeptides in accordance with the invention. Further experiments were then conducted to investigate the antibacterial activity of this peptide library against the bacteria P. aeroginosa, S. aureus and S. pneumoniae. The methods used to determine the IC50 values for each peptide were as described in the Example 1.” for “inhibition).”

bacteria = details: Peptides, 21: 327-330 (2000); cited from earlier work

Substance	Antibacterial activity, in words, bacterium not specified [1]	IC50 [2] [µM]	Effectiveness against Pseudomonadales, in particular P. aeruginosa, in words ([2]; summary in description)	IC50 [3] [µM]	Genotoxic response in test yeast strain (GenT01) [4]	IC50 (Streptococcus pneumoniae) [µM]	Antibacterial activity reported by Azuma et al., in words (bacteria)
Ac-WRKWRKRWWLRKLRKRLL-NH2 [GIN 34]	particularly effective	3	particularly effective	7	failed to produce any genotoxic response	–	–
Ac-WRWRKRWRKWRWRKRWRK-NH2 [MU_27]	–	–	–	–	failed to produce any genotoxic response	46	–
HRWRKRWRKHRWRKRWRK-NH2 (C-terminus assumed) [MU_36]	–	> 53	–	40	–	> 53	–
HRWRKRWRKWRWRKRWRK-NH2 (C-terminus assumed) [MU_31]	–	12	–	17	–	42	–
KRWRKRWRKWRWRKRWRK-NH2 (C-terminus assumed) [MU_29]	–	7.5	–	23	–	52	–
LRVRLASHLRKLRKRLLRDADDLQKRLAVY [apoE133-162, 30-mer monomeric peptide of Azuma et al]	–	–	–	–	–	–	comparable with that of the antibiotic gentamicin
LRWRKRWRKLRWRKRWRK-NH2 (C-terminus assumed) [MU_35]	–	23	–	31	–	53	–
LRWRKRWRKWRWRKRWRK-NH2 (C-terminus assumed) [MU_30]	particularly effective	15	–	15	–	38	–
RRKRRKRRRRRKRRKRRR-NH2 (C-terminus assumed) [MU_16]	–	> 53	–	–	–	> 53	–
RRWRKRWRKRRWRKRWRK-NH2 (C-terminus assumed) [MU_33]	–	> 53	–	38	–	53	–
RRWRKRWRKWRWRKRWRK-NH2 (C-terminus assumed) [MU_28]	particularly effective	11.5	–	15	–	46	–
RWRKRWRKWRWRKRWRK-NH2 (C-terminus assumed) [MU_32]	particularly effective	12	–	15	–	46	–
apoE134-155: Azuma's shorter apoE peptide, stated as 18 amino acids in length (RVRLASHLRKLRKRLLRDADDL; UniProt P02649 152-173, looked up, fragment)	–	–	–	–	–	–	no activity at all
apoE134-159: Azuma's shorter apoE peptides, label printed for both a 22 and a 26 amino acid peptide (RVRLASHLRKLRKRLLRDADDLQKRL; UniProt P02649 152-177, looked up, fragment)	–	–	–	–	–	–	very low antibacterial activity; also recorded: greatly reduced antibacterial activity
